{"source": "paper PMC9652379", "about": "“Safety evaluations of a synthetic antimicrobial peptide administered intravenously in rats and dogs” (Scientific Reports, 2022)", "format_in_all_cases": "in vivo, rat", "key": {"[1]": {"test_system": "Sprague Dawley rats", "assay": "Dose range finding in rats: clinical signs, body weight, survival", "description": "The purpose of this study was to determine the DRF of SET-M33 peptide when administered by intravenous bolus to Sprague Dawley rats. In order to identify a starting point for DRF, in Phase I of this study the peptide was administered once daily for 3 days at a constant dose of 20 mg/kg/day to six animals (three males and three females). […] No clinical signs were recorded in any animal 20–60 min after administration. Body weight of all animals in Phase I remained constant or decreased slightly during treatment.\nPhase II, where 10 animals/group (five males and five females) were used, included a control group and two dose groups (10 mg/kg/day and 20 mg/kg/day), that were injected once daily for seven days. […] At 20 mg/kg/day, additional clinical signs, including decreased activity, irregular and/or slow breathing, piloerection, partially closed eyelids, abnormal uncoordinated gait, reduced body tone and hunched posture, were observed during the 7 days. The mean body weight of males treated with 10 and 20 mg/kg/day declined slightly (6% and 5% less than control group, respectively).\nSprague Dawley rats were used for the toxicity studies. The animals were supplied by Envigo RMS S.L. All animals were 6–8 weeks old at the start of treatment and were allocated randomly to the treatment groups. […]\nA viability/mortality check was recorded at least twice daily. […]"}, "[2]": {"test_system": "Sprague Dawley rats", "assay": "Dose range finding in rats: haematology, clinical biochemistry, urinalysis", "conditions": "female rats, 7 days, mean ± SD", "description": "Clinical haematology, biochemistry and urinalysis parameters were evaluated in animals in Phase II at the end of the treatment period. A complete list of parameters is reported in Materials and Methods. Administration of SET-M33 at 10 and 20 mg/kg/day for 7 days caused a statistically significant decrease of reticulocytes in males and females. […] There were significant differences in other parameters, such as glucose (males at 10 and 20 mg/kg/day), cholesterol (males at 20 mg/kg/day), triglycerides (females at 20 mg/kg/day), electrolytes, total protein and albumin (males at 20 mg/kg/day). Increased urine volume and lower specific gravity compared to the control group was recorded in both sexes at both doses. […]\nBlood samples were drawn from the retro-orbital plexus of all animals under light isoflurane anaesthesia. […] The following parameters were determined using an ADVIA 120 haematology analyser (Siemens Healthcare): Red blood cell count (RBC), haemoglobin (Hb), haematocrit (Hct), mean corpuscular volume (MCV), mean corpuscular haemoglobin (MCH), mean corpuscular haemoglobin concentration (MCHC), reticulocyte count (absolute and relative) (Retic), platelet count (Plt), total leukocyte count (WBC), neutrophils (N), lymphocytes (L), monocytes (M), eosinophils (E), basophils (B), large unstained cells (LUC). […]"}, "[3]": {"test_system": "Sprague Dawley rats", "assay": "Four-week toxicity study in rats: clinical biochemistry and urinalysis", "conditions": "mean ± SD", "description": "The purpose of this study was to evaluate the toxic effects of SET-M33 when administered intravenously to Sprague Dawley rats for 4 weeks. Recovery was evaluated during a 14-day drug-free period. The peptide was administered once a day at three dose levels at 5, 9 and 15 mg/kg/day, and the control group was treated with the vehicle (ten males and ten females per group which were sacrificed after 4 weeks for clinical and necroscopy analyses; five males and five females for the control and 15 mg/kg/day groups which were sacrificed after the 2 weeks recovery period). The higher dose was selected on the basis of the DRF study (above) in which evident toxicity was recorded at the dose of 20 mg/kg. The efficacy dose in mouse is 5 mg/kg[24]. The lowest dose of this test is approximately twice the equivalent efficacy dose in rat (using body surface area) and the intermediate dose is approximately the geometric mean of the other two.\nBlood samples were collected into lithium heparin tubes. The following parameters were determined using a Cobas 6000 Analyzer (Roche): glucose (Gluc), urea (Urea), creatinine (Creat), bilirubin, total (Bili), cholesterol, total (Chol), triglycerides (Trig), aspartate aminotransferase (AST), alanine aminotransferase (ALT), alkaline phosphatase (ALP), creatine kinase (CK), gamma-glutamyl-transferase (gGT), calcium (Ca), inorganic phosphorus (Phos), sodium (Na), potassium (K), chloride (Cl), albumin (Alb), globulin (calculated from total protein and Alb%) (Glob), total protein (Total Prot), album/globulin ratio (A/G ratio).\nUrine was collected overnight into specimen vials (animals were placed in metabolism cages at the end of the working day preceding the day of urine collection). The following parameters were determined using a Cobas u 411 semi-automated test strip analyser (Roche): specific gravity (SG1), protein (Prot), ketones (Keto), volume (Vol), creatinine (U-Creat), bilirubin (Bili), colour (Col), glucose (U-Gluc), erythrocytes (U-RBC), appearance (App), nitrite (Nite), pH, leukocytes (U-WBC)."}}, "note": "Positions of bridges follow the written chain, without caps; N, C: chain ends. Non-standard residues stand in square brackets, D forms with d. Residues, ends and D or L forms follow the SMILES beside them. Chains are numbered I, II in the order given. βAla = NCCC(=O)O"}
{"smiles": "CC[C@H](C)[C@H](NC(=O)[C@H](CCCCN)NC(=O)[C@@H](N)CCCCN)C(=O)N[C@@H](CCCNC(=N)N)C(=O)N[C@H](C(=O)N[C@@H](CCCNC(=N)N)C(=O)N[C@@H](CC(C)C)C(=O)N[C@@H](CO)C(=O)N[C@@H](C)C(=O)NCCCC[C@H](NC(=O)[C@H](C)NC(=O)[C@H](CO)NC(=O)[C@H](CC(C)C)NC(=O)[C@H](CCCNC(=N)N)NC(=O)[C@@H](NC(=O)[C@H](CCCNC(=N)N)NC(=O)[C@@H](NC(=O)[C@H](CCCCN)NC(=O)[C@@H](N)CCCCN)[C@@H](C)CC)C(C)C)C(=O)NCCCC[C@H](NC(=O)[C@H](CCCCNC(=O)[C@H](C)NC(=O)[C@H](CO)NC(=O)[C@H](CC(C)C)NC(=O)[C@H](CCCNC(=N)N)NC(=O)[C@@H](NC(=O)[C@H](CCCNC(=N)N)NC(=O)[C@@H](NC(=O)[C@H](CCCCN)NC(=O)[C@@H](N)CCCCN)[C@@H](C)CC)C(C)C)NC(=O)[C@H](C)NC(=O)[C@H](CO)NC(=O)[C@H](CC(C)C)NC(=O)[C@H](CCCNC(=N)N)NC(=O)[C@@H](NC(=O)[C@H](CCCNC(=N)N)NC(=O)[C@@H](NC(=O)[C@H](CCCCN)NC(=O)[C@@H](N)CCCCN)[C@@H](C)CC)C(C)C)C(=O)NCCC(=O)O)C(C)C", "note": "[SET-M33] (I: H-KKIRVRLSAKK[βAla]-OH / II: H-KKIRVRLSAK / III: H-KKIRVRLSA / IV: H-KKIRVRLSA; amide I:10-IV:C, I:11-II:C, II:10-III:C (inferred); N-terminus and C-terminus assumed)", "values": [{"measurement": "female body weight", "setting": "[1]; female rats, 10 and 20 mg/kg/day iv, 7 days (Phase II)", "value": "unaffected by treatment"}, {"measurement": "survival", "setting": "[1]; rats, Phase I 20 mg/kg/day 3 days and Phase II 10 and 20 mg/kg/day 7 days, iv bolus", "value": "All animals survived both phases"}, {"measurement": "Phos, inorganic phosphorus", "setting": "[2]; 10 mg/kg/day iv", "value": "1.96 ± 0.187", "unit": "mmol/L"}, {"measurement": "Phos, inorganic phosphorus", "setting": "[2]; 20 mg/kg/day iv", "value": "2.05 ± 0.26", "unit": "mmol/L"}, {"measurement": "Phos, inorganic phosphorus", "setting": "[3]; female rats, 9 mg/kg/day iv, week 4 of treatment", "value": "1.49 ± 0.415", "unit": "mmol/L"}, {"measurement": "Phos, inorganic phosphorus", "setting": "[3]; female rats, 15 mg/kg/day iv 4 weeks, week 2 of recovery", "value": "2.04 ± 0.616", "unit": "mmol/L"}, {"measurement": "Phos, inorganic phosphorus", "setting": "[3]; male rats, 5 mg/kg/day iv, week 4 of treatment", "value": "1.97 ± 0.309", "unit": "mmol/L"}, {"measurement": "Phos, inorganic phosphorus", "setting": "[3]; male rats, 9 mg/kg/day iv, week 4 of treatment", "value": "2.26 ± 0.393", "unit": "mmol/L"}, {"measurement": "Phos, inorganic phosphorus", "setting": "[3]; male rats, 15 mg/kg/day iv 4 weeks, week 2 of recovery", "value": "2.83 ± 1.37", "unit": "mmol/L"}]}
